Reference: ChEMBL document CHEMBL1150748, “Isolation of the antimicrobial alkaloid stemmadenine from Iraqi Rhazya stricta” (1988)
≈ marks a conversion by molar mass, not a printed value.

Assays:
Format in all cases: functional
[1] = system: Pseudomonas aeruginosa; experiment: Antimicrobial activity against Pseudomonas aeruginosa ATCC 9027
[2] = system: Escherichia coli; experiment: Antimicrobial activity against Escherichia coli ATCC 8739
[3] = system: Staphylococcus aureus; experiment: Antimicrobial activity against Staphylococcus aureus ATCC 6538
[4] = system: Candida albicans; experiment: Antimicrobial activity against Candida albicans ATCC 10231

| Compound | MIC [1] | MIC [2] | MIC [3] | MIC [4] |
| --- | --- | --- | --- | --- |
| CCCCCCCCCCCCC[N+](C)(C)Cc1ccccc1.[Cl-] [BENZALKONIUM CHLORIDE] | 8 µg/mL | 2.8 µg/mL | 0.32 µg/mL | 1.8 µg/mL |
| CC(=O)O.CC(=O)O.NC(=N\CCCCCC/N=C(N)/N=C(\N)Nc1ccc(Cl)cc1)/N=C(\N)Nc1ccc(Cl)cc1 [CHLORHEXIDINE DIACETATE] | 1.5 µg/mL | 0.4 µg/mL | 0.2 µg/mL | 4.5 µg/mL |
| C/C=C1/CN2CCc3c([nH]c4ccccc34)[C@@](CO)(C(=O)OC)[C@@H]1CC2 [STEMMADENINE] | 7.5 µg/mL (≈ 21.2 µM) | 1.25 µg/mL (≈ 3.53 µM) | 5 µg/mL (≈ 14.1 µM) | 37.5 µg/mL (≈ 106 µM) |
| THIMEROSAL | 1.5 µg/mL | 0.6 µg/mL | 0.2 µg/mL | 0.1 µg/mL |
